Source: patent US20240299360A1, “ADAMTS INHIBITORS, PREPARATION METHODS AND MEDICINAL USES THEREOF” (Jiangsu Hengrui Pharmaceuticals Co., Ltd., priority 2020, published 2024)

Legend:
[1] = molecular target: T1, ADAMTS-5 recombinant protein (Homo sapiens (Human), UniProt Q9UNA0); assay: In vitro ELISA of ADAMTS-5 activity (Aggrecan-IGD enzymatic assay); format: biochemical; conditions: aggrecan-IGD substrate, ARGSVIL-peptide ELISA, 37° C. 45 minutes
In short: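 Recombinant ADAMTS-5 (0.3 nM diluted) was preincubated with compound 15 min at room temperature in 50 mM HEPES pH 7.5, 100 mM NaCl, 5 mM CaCl2, 0.1% CHAPS, 5% glycerol. Aggrecan-IGD substrate (T331-G458, His-tagged; 100 nM diluted) was then added for 45 min at 37 °C. ARGSVIL neoepitope was quantified by ELISA (A450) against a 4PL standard curve, and IC50 came from a four-parameter fit.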

[2] = molecular target: ADAMTS-4 recombinant protein (Homo sapiens (Human), UniProt O75173); assay: In vitro fluorescence (FRET-peptide) enzymatic assay of ADAMTS-4 activity; format: biochemical; conditions: FRET peptide substrate 15 μM, 10 nM enzyme, 37° C. 3 hours
In short: (§1)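 Enzyme (10 nM final) was preincubated with compound for 15 min at room temperature in 50 mM HEPES pH 7.5, 100 mM NaCl, 5 mM CaCl2, 0.1% CHAPS, 5% glycerol. FRET peptide was then added (15 μM for ADAMTS-4, 8 μM for ADAMTS-5), and fluorescence (Ex 490/Em 520 nm) was read after 3 h at 37° C. IC50 was derived from four-parameter fits.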

[3] = molecular target: T1, ADAMTS-5 recombinant protein; assay: In vitro fluorescence (FRET-peptide) enzymatic assay of ADAMTS-5 activity; format: biochemical; conditions: FRET peptide substrate 8 μM, 10 nM enzyme, 37° C. 3 hours
In short: as §1

[4] = system: mouse femoral head cartilage; assay: Mouse explant assay (IL-1α induced GAG release); format: cell-based; conditions: inhibition of GAG release, IL-1α 1 ng/ml, 72 hours; for inhibition at 2 µM: compound 2 μM; for inhibition at 20 µM: compound 20 μM
Description: In this assay, fresh mouse femoral head cartilage was treated with IL-1α protein (Sigma-Aldrich, catalog #12778) in culture media, which induces the cartilage catabolism. Then, the GAGs attached to the cleaved aggrecan fragments (released in the media) and the GAGs attached to the intact aggrecan were measured by dimethylmethylene blue dye in the Glycosaminoglycans Assay Kit (Chondrex, catalog #6022).
Femoral head cartilage samples were isolated from mice (25 days old, male, C57BL/6, from Charles River Lab) and put into 2.0 ml tubes filled-up with media (DMEM, 10% FBS, 4 mM Glutamine, penicillin-streptomycin, 20 mM HEPES). Two hundred μl of media without FBS was added to each well of a 48-well plate, and one piece of cartilage was transferred to a well in the plate. Then the media was aspirated, and compounds and IL-1α protein were added to the plate in a total volume of 400 μl of fresh media without FBS. The final concentration of IL-1α was 1 ng/ml. The plate was incubated at 37° C. for 72 hours in a humidified incubator with 5% CO2 supply.
The supernatant was transferred to a 1.5 ml tube and kept at −20° C. Each cartilage sample was transferred to another 1.5 ml tube containing 400 μl of freshly made papain solution. The papain solution contained 125 μg/ml papain (Sigma-Aldrich, catalog #P3125), 0.1 M sodium acetate (Sigma-Aldrich, catalog #S7899), pH 5.5 and 5 mM EDTA and 5 mM L-cysteine-HCl (Sigma-Aldrich, catalog #C7880). The cartilage samples were kept rocking in a 60° C. water bath for 24 hours. The lysates were vortexed for 10 seconds and spinned at 10,000 rpm for 2 minutes.
Both the supernatant and the lysate samples were diluted with PBS and mixed with 100 μl of dye from the Glycosaminoglycans Assay Kit. The optical density from each well was determined with a TECAN plate reader set to a wavelength of 525 nm.
The concentrations of GAGs in the supernatant and lysates were determined based on the standard curve with a dose range of chondroitin sulfate provided in the kit. The percentage of GAG release was calculated as the following
The test compound effect was expressed as the percent of inhibition using the following formula: […]

T1 sequence (Q9UNA0 262-622): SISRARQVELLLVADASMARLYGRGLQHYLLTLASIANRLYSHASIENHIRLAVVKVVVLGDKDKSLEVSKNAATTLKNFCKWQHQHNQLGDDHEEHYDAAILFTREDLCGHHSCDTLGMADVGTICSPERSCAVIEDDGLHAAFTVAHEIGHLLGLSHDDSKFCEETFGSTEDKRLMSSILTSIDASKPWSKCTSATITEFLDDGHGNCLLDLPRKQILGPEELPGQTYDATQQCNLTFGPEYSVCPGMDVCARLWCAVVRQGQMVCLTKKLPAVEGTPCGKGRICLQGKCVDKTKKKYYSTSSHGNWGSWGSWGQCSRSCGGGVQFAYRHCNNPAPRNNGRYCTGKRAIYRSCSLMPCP
Chain of ADAMTS-4 recombinant protein (O75173 213-685): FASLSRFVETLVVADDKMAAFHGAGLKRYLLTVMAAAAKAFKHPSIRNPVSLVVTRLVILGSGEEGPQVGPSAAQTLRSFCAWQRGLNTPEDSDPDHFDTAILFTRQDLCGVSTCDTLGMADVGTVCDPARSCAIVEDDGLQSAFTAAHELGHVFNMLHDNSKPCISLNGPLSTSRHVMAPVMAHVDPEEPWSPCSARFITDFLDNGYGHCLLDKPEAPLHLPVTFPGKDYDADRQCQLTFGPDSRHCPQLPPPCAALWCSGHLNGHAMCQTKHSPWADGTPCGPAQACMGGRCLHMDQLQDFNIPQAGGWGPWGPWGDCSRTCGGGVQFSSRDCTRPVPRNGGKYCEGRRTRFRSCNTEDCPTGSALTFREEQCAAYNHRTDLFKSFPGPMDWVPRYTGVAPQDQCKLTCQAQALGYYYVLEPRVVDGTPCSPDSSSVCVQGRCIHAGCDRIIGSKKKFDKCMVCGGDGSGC

Row | SMILES | IC50 [1] | IC50 [2] | IC50 [3] | inhibition at 2 µM [4] | inhibition at 20 µM [4]
1 | CC1CN(C(=O)CC[C@@]2(C3CC3)NC(=O)NC2=O)CCc2ccc(Cl)cc21 (stereo partly drawn) [Example 8, (5S)-5-(3-(8-chloro-1-methyl-4,5-dihydro-1H-benzo[d]azepin-3 (2H)-yl)-3-oxopropyl)-5-cyclopropylimidazolidine-2,4-dione] | 130 nM | 66 nM | 53 nM | 22% | 63%
2 | O=C1NC(=O)[C@](CCC(=O)N2CCc3ccccc3CC2)(C2CC2)N1 [Example 9, (S)-5-cyclopropyl-5-(3-(4,5-dihydro-1H-benzo[d]azepin-3 (2H)-yl)-3-oxopropyl)imidazolidine-2,4-dione] | 56 nM | 42 nM | 37 nM | 22% | 55%
3 | O=C1NC(=O)[C@](CCC(=O)N2Cc3cc(Cl)c(C(F)(F)F)cc3C2)(C2CC2)N1 [Example 40, (S)-5-(3-(5-chloro-6-(trifluoromethyl)isoindolin-2-yl)-3-oxopropyl)-5-cyclopropylimidazolidine-2,4-dione] | 92 nM | 42 nM | 25 nM | 2% | 52%
4 | O=C1NC(=O)C(CC(CO)C(=O)N2Cc3cc(Cl)c(Cl)cc3C2)(C2CC2)N1 (stereo not drawn) [Example 42, 5-cyclopropyl-5-(3-(5,6-dichloroisoindolin-2-yl)-2-(hydroxymethyl)-3-oxopropyl)imidazolidine-2,4-dione] | 17 nM | 11 nM | 14 nM | 51% | 92%
5 | O=C1NC(=O)[C@](CCC(=O)N2CCc3ccc(F)cc3CC2)(C2CC2)N1 [Example 44, (S)-5-cyclopropyl-5-(3-(7-fluoro-1,2,4,5-tetrahydro-3H-benzo[d]azepin-3-yl)-3-oxopropyl)imidazolidine-2,4-dione] | 51 nM | 15 nM | 37 nM | 13% | 70%

The next lines start with results.

Row | IC50 [1] | IC50 [2] | IC50 [3] | SMILES | inhibition at 2 µM [4] | inhibition at 20 µM [4]
6 | 25 nM | 19 nM | 12 nM | O=C1NC(=O)[C@](CCC(=O)N2CCc3ccc(C(F)(F)F)cc3CC2)(C2CC2)N1 [Example 45, (S)-5-cyclopropyl-5-(3-oxo-3-(7-(trifluoromethyl)-1,2,4,5-tetrahydro-3H-benzo[d]azepin-3-yl)propyl)imidazolidine-2,4-dione] | 45% | 96%
7 | 48 nM | 30 nM | 66 nM | O=C1NC(=O)[C@](CCC(=O)N2Cc3ccc(C(F)F)cc3C2)(C2CC2)N1 [Example 52, (S)-5-cyclopropyl-5-(3-(5-(difluoromethyl)isoindolin-2-yl)-3-oxopropyl)imidazolidine-2,4-dione] | 10% | 48%
8 | 46 nM | 82 nM | 46 nM | O=C1NC(=O)[C@](CCC(=O)N2Cc3cc(Br)c(C(F)(F)F)cc3C2)(C2CC2)N1 [Example 59, (S)-5-(3-(5-bromo-6-(trifluoromethyl)isoindolin-2-yl)-3-oxopropyl)-5-cyclopropylimidazolidine-2,4-dione] | 16% | 66%
9 | 19 nM | 12 nM | 10 nM | C[C@@H]1c2cc(Cl)c(Cl)cc2CN1C(=O)CC[C@@]1(C2CC2)NC(=O)NC1=O [Example 66-2, (S)-5-cyclopropyl-5-(3-((R)-5,6-dichloro-1-methylisoindolin-2-yl)-3-oxopropyl)imidazolidine-2,4-dione] | 23% | 87%
